Here are results for 14 molecules from ChEMBL document CHEMBL1201862, “PubChem BioAssay data set” (2004).

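Dose response: 5 concentrations. Exposure: 48 h. Format: 96-well plates. Endpoint: linear interpolation; highest concentration if not reached. GI50 = concentration required for 50% inhibition of growth.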 Activity calls are given as the source filed them. Cut-off read from the data, not from the text of the source: active = GI50 up to about 1.1 µM and inactive = higher.

Some test systems named below: SK-OV-3; SW-620; SF-295; HCC 2998; RXF 393; SK-MEL-5; OVCAR-3; OVCAR-4; UACC-257; NCI-H460; LOX IMVI; NCI-H522; A498; M14; HOP-92; HL-60; RPMI-8226.
Test in all cases: NCI anticancer screen, dose series, 48 h

As to `CN(C)C(=S)/N=c1\ssc(=S)n1Cc1ccncc1`, the GI50 is 25.2 µM (inactive) in the assay on SK-OV-3; 16.5 µM (inactive) with SW-620; 29.8 µM (inactive) in the assay with SF-295; 21.1 µM (inactive) with HCC 2998; 25.5 µM (inactive) with RXF 393; 4.78 µM (inactive) in the assay with SK-MEL-5. The GI50 in the assay with OVCAR-3 is 13.3 µM (inactive); with OVCAR-4 it was 20 µM (inactive); with UACC-257, 26.7 µM (inactive); in the assay with NCI-H460, 13.8 µM (inactive); with LOX IMVI it was 19.8 µM (inactive); with NCI-H522, 1.49 µM (inactive). Further, the GI50 in the assay with A498 was 36.2 µM (inactive); in the assay on M14, 20.6 µM (inactive).

Turning to `Nc1ccc(C(=O)N/C(=C\c2ccc3c(c2)OCO3)c2nc3ccccc3s2)cc1`, the GI50 was 12.3 µM (inactive) with HOP-92; 21.3 µM (inactive) in the assay with SK-OV-3; 11.5 µM (inactive) in the assay with SW-620; 16.7 µM (inactive) in the assay with SF-295; 14.8 µM (inactive) in the assay with HCC 2998; 14.8 µM (inactive) in the assay on RXF 393. The GI50 in the assay on SK-MEL-5 was 13.7 µM (inactive); in the assay on OVCAR-3 it was 16.9 µM (inactive); in the assay on OVCAR-4, 12.2 µM (inactive); in the assay with NCI-H522 it was 13.8 µM (inactive); with M14 it was 11 µM (inactive).

As to `COc1ccc(N2C(=O)C3CC(c4ccc(Br)cc4)c4c([nH]c5ccccc45)C3C2=O)cc1` (stereo not drawn), the GI50 in the assay with HOP-92 is 12.3 µM (inactive); with SW-620 it was 5.81 µM (inactive); in the assay on HL-60, 12.8 µM (inactive); with SF-295, 10.8 µM (inactive); with SK-MEL-5 it was 16.5 µM (inactive); with RPMI-8226, 26.7 µM (inactive). The GI50 in the assay on OVCAR-4 was 3.25 µM (inactive); in the assay with UACC-257 it was 17.3 µM (inactive); in the assay with NCI-H460 it was 4.92 µM (inactive); in the assay with LOX IMVI, 4.69 µM (inactive); in the assay with A498 it was 9.59 µM (inactive); in the assay on M14, 19.5 µM (inactive).

Regarding `N#Cc1c(C[n+]2ccccc2)c2ccccc2oc1=O`, the GI50 in the assay with SK-OV-3, in the assay with SW-620, in the assay on SF-295, in the assay on HCC 2998, in the assay with SK-MEL-5 and with OVCAR-3 was > 100 µM (inactive) in each case. The GI50 with RPMI-8226 is > 100 µM (inactive); with OVCAR-4 it was 22.7 µM (inactive); in the assay on UACC-257 it was > 100 µM (inactive); with NCI-H460, > 100 µM (inactive); with LOX IMVI, > 100 µM (inactive); in the assay with NCI-H522 it was > 100 µM (inactive). Further, in the assay with M14, the GI50 is > 100 µM (inactive).

For `NC1=NN(c2ccccc2)C(=O)C1/C(=N\NC(=O)c1cc2ccccc2cc1O)C(=O)Nc1ccc(Cl)cc1` (stereo not drawn), the GI50 was 23.1 µM (inactive) with HOP-92; 51.5 µM (inactive) in the assay on SK-OV-3; 32.1 µM (inactive) in the assay with SW-620; 3.57 µM (inactive) with HL-60; 35.5 µM (inactive) in the assay with SF-295; 28.9 µM (inactive) in the assay on HCC 2998. The GI50 is 24.7 µM (inactive) in the assay on SK-MEL-5; 10.9 µM (inactive) in the assay with OVCAR-3; 22.6 µM (inactive) with RPMI-8226; 18.5 µM (inactive) in the assay on OVCAR-4; 28.6 µM (inactive) in the assay with UACC-257; 13.5 µM (inactive) in the assay on NCI-H460. For the same molecule, the GI50 with NCI-H522 is 20.4 µM (inactive); in the assay on A498, 24.2 µM (inactive); in the assay on M14, 20.7 µM (inactive).

As to `Cc1nc2ccccc2c(=O)n1-c1ccccc1I`, the GI50 with SK-OV-3, with SW-620, with HL-60, with SF-295, in the assay on HCC 2998 and in the assay with SK-MEL-5 was > 100 µM (inactive) throughout. For the same molecule, the GI50 in the assay with OVCAR-3, in the assay on RPMI-8226, in the assay on OVCAR-4, in the assay on UACC-257, with NCI-H460 and in the assay with NCI-H522 was > 100 µM (inactive) throughout. In addition, the GI50 in the assay on A498 and with M14 was > 100 µM (inactive) in each case.

Turning to `CCOc1ccc2c(c1)[n+]([O-])c(-c1ccc(Cl)cc1)c(N)[n+]2[O-]`, the GI50 was > 100 µM (inactive) with HOP-92; > 100 µM (inactive) in the assay with SK-OV-3; > 100 µM (inactive) in the assay with SW-620; 44 µM (inactive) in the assay on HL-60; > 100 µM (inactive) in the assay on SF-295; > 100 µM (inactive) in the assay on SK-MEL-5. The GI50 was > 100 µM (inactive) in the assay on OVCAR-3; 10.8 µM (inactive) in the assay on RPMI-8226; > 100 µM (inactive) with OVCAR-4; > 100 µM (inactive) with UACC-257; > 100 µM (inactive) in the assay on NCI-H460; 34.4 µM (inactive) in the assay with NCI-H522. Also, the GI50 with A498 and with M14 was > 100 µM (inactive) each time.

Regarding `COc1ccc(/C=C\c2cc(OC)c(OC)c(OC)c2)cc1`, the GI50 in the assay with HOP-92 is 0.0127 µM (active); with SK-OV-3, 0.000726 µM (active); with SW-620, 0.000237 µM (active); in the assay with HL-60, 0.000244 µM (active); with SF-295 it was 0.000185 µM (active); with HCC 2998, 0.0385 µM (active). In addition, the GI50 in the assay on SK-MEL-5 is < 0.0001 µM (active); with OVCAR-3, < 0.0001 µM (active); in the assay with RPMI-8226, 0.00049 µM (active); in the assay with UACC-257, < 0.01 µM (active); in the assay on NCI-H460 it was < 0.01 µM (active); in the assay on LOX IMVI, 0.000632 µM (active). The GI50 in the assay on NCI-H522 is 0.000364 µM (active); with A498, < 0.01 µM (active); with M14, 0.00024 µM (active).

On to `CC1=C(c2nc3ccccc3s2)C(=O)OC1(C)C`, for which the GI50 in the assay on SK-OV-3, in the assay on SW-620, with SF-295, in the assay on HCC 2998, in the assay on SK-MEL-5 and in the assay on OVCAR-3 was > 100 µM (inactive) in each case. Besides, the GI50 in the assay on RPMI-8226, with OVCAR-4, in the assay on UACC-257, in the assay on NCI-H460, in the assay with LOX IMVI and in the assay with NCI-H522 was > 100 µM (inactive) each time. For the same molecule, the GI50 with M14 was > 100 µM (inactive).

For the molecule `Cc1cc2nc3c(C(OC4OC(CO)C(O)C(O)C4O)C(O)CO)nn(-c4ccc(F)cc4)c3nc2cc1C` (stereo not drawn), the GI50 with SK-OV-3, in the assay with SF-295, in the assay with HCC 2998, in the assay on RXF 393, in the assay on OVCAR-3 and with RPMI-8226 was > 100 µM (inactive) throughout. For the same molecule, the GI50 with OVCAR-4, with UACC-257, in the assay on NCI-H460, with LOX IMVI, in the assay with NCI-H522 and with A498 was > 100 µM (inactive) throughout. Also, the GI50 in the assay with M14 is > 100 µM (inactive).

Regarding `Cc1n[nH]c(=S)n(C)c1=S`, the GI50 in the assay on HOP-92 is 91.2 µM (inactive); with SK-OV-3, > 100 µM (inactive); in the assay with SW-620, > 100 µM (inactive); with SF-295 it was > 100 µM (inactive); in the assay on RXF 393 it was > 100 µM (inactive); in the assay with OVCAR-3 it was > 100 µM (inactive). For the same molecule, the GI50 with RPMI-8226, in the assay on OVCAR-4, in the assay with NCI-H460, in the assay with LOX IMVI, with NCI-H522 and in the assay on A498 was > 100 µM (inactive) throughout. The GI50 with M14 is > 100 µM (inactive).

In the case of `CCOC(=O)C(=O)Nc1c(C)cccc1C`, the GI50 in the assay on HOP-92, with SK-OV-3, in the assay with SW-620, in the assay on SF-295, in the assay with HCC 2998 and in the assay on RXF 393 was > 100 µM (inactive) in each case. Besides, the GI50 with OVCAR-3, in the assay on RPMI-8226, with OVCAR-4, in the assay on UACC-257, with NCI-H460 and in the assay on LOX IMVI was > 100 µM (inactive) each time. Further, the GI50 with M14 was > 100 µM (inactive).

`O=C[C@]12CC=C3OC4OC5(CCCCC5)OC4[C@H]3[C@H]1C(=O)C=CC2=O` (stereo partly drawn): the GI50 in the assay with SK-OV-3 is 45.8 µM (inactive); with SW-620, 19.3 µM (inactive); in the assay on HL-60, 0.406 µM (active); in the assay with SF-295, 34.6 µM (inactive); in the assay on HCC 2998, 32.7 µM (inactive); with RXF 393, 12.6 µM (inactive). In addition, the GI50 with SK-MEL-5 was 17.7 µM (inactive); with OVCAR-4 it was 16.7 µM (inactive); in the assay with UACC-257, 21.1 µM (inactive); in the assay on NCI-H460, 23.9 µM (inactive); with NCI-H522, 5.9 µM (inactive); in the assay on A498 it was > 100 µM (inactive). For the same molecule, the GI50 with M14 is 19 µM (inactive).

Consider `O=C(NCCNCCO)c1cccc2ccc(-c3ccccc3)nc12`, for which the GI50 is 3.18 µM (inactive) with HOP-92; 8.13 µM (inactive) in the assay with SK-OV-3; 3.15 µM (inactive) with SW-620; 3.17 µM (inactive) with HL-60; 5.58 µM (inactive) in the assay on SF-295; 5.01 µM (inactive) with HCC 2998. Moreover, the GI50 in the assay with RXF 393 is 3.98 µM (inactive); in the assay with SK-MEL-5, 3.59 µM (inactive); in the assay on OVCAR-3, 7.66 µM (inactive); in the assay on OVCAR-4, 6.5 µM (inactive); in the assay with UACC-257, 3.47 µM (inactive); with NCI-H460 it was 2.02 µM (inactive). Moreover, the GI50 with LOX IMVI is 2.7 µM (inactive); in the assay on A498, 1.8 µM (inactive); in the assay with M14, 5.28 µM (inactive).
